In patent US9884868B2, “TGF-beta inhibitors” (Rigel Pharmaceuticals, Inc., priority 2015, dated 2018):

Each compound was assayed against HIS-TGF-βR1 T204D (Homo sapiens (Human), UniProt P36897, T204D) (assay: HTRF probe displacement assay with HIS-TGF-βR1 T204D). Settings: not given.
HIS-TGF-βR1 T204D, sequence (P36897 34-503 T204D): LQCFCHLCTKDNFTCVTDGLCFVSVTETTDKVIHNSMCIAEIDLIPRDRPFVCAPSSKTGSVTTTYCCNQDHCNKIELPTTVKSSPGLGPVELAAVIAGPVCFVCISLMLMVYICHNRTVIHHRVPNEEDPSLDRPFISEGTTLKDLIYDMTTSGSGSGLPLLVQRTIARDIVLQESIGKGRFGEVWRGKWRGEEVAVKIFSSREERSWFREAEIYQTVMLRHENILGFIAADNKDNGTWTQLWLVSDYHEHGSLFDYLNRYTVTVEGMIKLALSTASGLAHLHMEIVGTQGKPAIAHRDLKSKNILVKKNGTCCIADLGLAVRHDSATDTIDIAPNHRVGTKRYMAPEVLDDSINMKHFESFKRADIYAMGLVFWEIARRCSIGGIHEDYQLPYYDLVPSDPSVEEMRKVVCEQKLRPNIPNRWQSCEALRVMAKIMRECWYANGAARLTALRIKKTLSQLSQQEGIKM

SMILES | IC50
NC(=O)c1cnc2ccc(-c3c(-c4ccc(F)c(Cl)c4)ncn3[C@H]3C[C@@H](O)C3)nn12 [140′, 6-(4-(3-chloro-4-fluorophenyl)-1-((1s,3s)-3-hydroxycyclobutyl)-1H-imidazol-5-yl)imidazo[1,2-b]pyridazine-3-carboxamide] | 2.8 nM
N#Cc1cnc2ccc(-c3c(-c4ccc(F)cc4)ncn3CCC(F)(F)F)nn12 [4′, 6-(4-(4-fluorophenyl)-1-(3,3,3-trifluoropropyl)-1H-imidazol-5-yl)imidazo[1,2-b]pyridazine-3-carbonitrile] | 6.8 nM

Same assay, conditions: read-out: TGFbr1 IC50; HTRF probe displacement, 1 nM HIS-TGF-βR1 T204D, 1 hour at room temperature

SMILES | IC50
OCc1cnc2ccc(-c3c(-c4ccc(F)cc4)ncn3CC(F)F)cn12 [274D′, (6-(1-(2,2-difluoroethyl)-4-(4-fluorophenyl)-1H-imidazol-5-yl)imidazo[1,2-a]pyridin-3-yl)methanol] | 92.6 nM
CC(C)(O)Cn1cnc(-c2ccc(F)cc2)c1-c1ccc2ncc(C#N)n2c1 [90′, 6-(4-(4-fluorophenyl)-1-(2-hydroxy-2-methylpropyl)-1H-imidazol-5-yl)imidazo[1,2-a]pyridine-3-carbonitrile] | 107 nM
CC(C)(F)Cn1cnc(-c2ccc(F)c(Cl)c2)c1-c1ccc2ncc(C#N)n2n1 [57′, 6-(4-(3-chloro-4-fluorophenyl)-1-(2-fluoro-2-methylpropyl)-1H-imidazol-5-yl)imidazo[1,2-b]pyridazine-3-carbonitrile] | 1.5 nM
N#Cc1cnc2ccc(-c3c(-c4ccc(F)c(Cl)c4)ncn3C[C@@H]3CCCO3)nn12 [42′, (S)-6-(4-(3-chloro-4-fluorophenyl)-1-((tetrahydrofuran-2-yl)methyl)-1H-imidazol-5-yl)imidazo[1,2-b]pyridazine-3-carbonitrile] | 1.8 nM
N#Cc1cnc2ccc(-c3c(-c4ccc(F)c(Cl)c4)ncn3C3CCOC3)nn12 (centres unmarked) [46′, 6-(4-(3-chloro-4-fluorophenyl)-1-(tetrahydrofuran-3-yl)-1H-imidazol-5-yl)imidazo[1,2-b]pyridazine-3-carbonitrile] | 1.5 nM
CC(C)n1cnc(-c2ccc(F)cc2)c1-c1ccc2ncc(C#N)n2n1 [24′, 6-(4-(4-fluorophenyl)-1-isopropyl-1H-imidazol-5-yl)imidazo[1,2-b]pyridazine-3-carbonitrile] | 0.4 nM
CC(C)CCn1cnc(-c2ccc(F)c(Cl)c2)c1-c1ccc2ncc(C#N)n2n1 [49′, 6-(4-(3-chloro-4-fluorophenyl)-1-isopentyl-1H-imidazol-5-yl)imidazo[1,2-b]pyridazine-3-carbonitrile] | 1.4 nM
Cn1cnc(-c2ccc(F)c(Cl)c2)c1-c1ccc2ncc(C#N)n2c1 [98′, 6-(4-(3-chloro-4-fluorophenyl)-1-methyl-1H-imidazol-5-yl)imidazo[1,2-a]pyridine-3-carbonitrile] | 17.3 nM
NC(=O)c1cnc2ccc(-c3c(-c4ccc(F)cc4)ncn3CC(F)F)cn12 [230′, 6-(1-(2,2-difluoroethyl)-4-(4-fluorophenyl)-1H-imidazol-5-yl)imidazo[1,2-a]pyridine-3-carboxamide] | 1.7 nM
N#Cc1cnc2ccc(-c3c(-c4ccccc4)ncn3CC(F)F)nn12 [237′, 6-(1-(2,2-difluoroethyl)-4-phenyl-1H-imidazol-5-yl)imidazo[1,2-b]pyridazine-3-carbonitrile] | 2.9 nM
C[C@H](O)Cn1cnc(-c2ccc(F)cc2)c1-c1ccc2ncc(C(N)=O)n2c1 [158′, (S)-6-(4-(4-fluorophenyl)-1-(2-hydroxypropyl)-1H-imidazol-5-yl)imidazo[1,2-a]pyridine-3-carboxamide] | 2.7 nM
N#Cc1cnc2ccc(-c3c(-c4ccc(F)cc4)ncn3C34CC(C3)C4)nn12 [25′, 6-(1-(bicyclo[1.1.1]pentan-1-yl)-4-(4-fluorophenyl)-1H-imidazol-5-yl)imidazo[1,2-b]pyridazine-3-carbonitrile] | 2.6 nM
N#Cc1cnc2ccc(-c3c(-c4ccc(F)cc4)ncn3C3CCCC3)cn12 [86′, 6-(1-cyclopentyl-4-(4-fluorophenyl)-1H-imidazol-5-yl)imidazo[1,2-a]pyridine-3-carbonitrile] | 94.7 nM
N#Cc1cnc2ccc(-c3c(-c4ccc(F)cc4)ncn3CC3CCCO3)nn12 (centres unmarked) [31′, 6-(4-(4-fluorophenyl)-1-((tetrahydrofuran-2-yl)methyl)-1H-imidazol-5-yl)imidazo[1,2-b]pyridazine-3-carbonitrile] | 1.9 nM
CC(C)n1cnc(-c2ccc(F)cc2)c1-c1ccc2ncc(C(N)=O)n2c1 [170′, 6-(4-(4-fluorophenyl)-1-isopropyl-1H-imidazol-5-yl)imidazo[1,2-a]pyridine-3-carboxamide] | 0.5 nM
CC[C@@H](CF)n1cnc(-c2ccc(F)cc2)c1-c1ccc2ncc(C(N)=O)n2n1 [128′, (S)-6-(1-(1-fluorobutan-2-yl)-4-(4-fluorophenyl)-1H-imidazol-5-yl)imidazo[1,2-b]pyridazine-3-carboxamide] | 1.5 nM
NC(=O)c1cnc2ccc(-c3c(-c4ccc(F)cc4)ncn3[C@H]3C[C@@H](O)C3)nn12 [Example 123′] | 4.2 nM
N#Cc1cnc2ccc(-c3c(-c4ccc(F)cc4)ncn3CC(F)F)cn12 [Example 224′, 6-(1-(2,2-difluoroethyl)-4-(4-fluorophenyl)-1H-imidazol-5-yl)imidazo[1,2-a]pyridine-3-carbonitrile] | 66.7 nM

SMILES | IC50
N#CCCn1cnc(-c2ccc(F)cc2)c1-c1ccc2ncc(C#N)n2n1 [268′, 6-(1-(2-cyanoethyl)-4-(4-fluorophenyl)-1H-imidazol-5-yl)imidazo[1,2-b]pyridazine-3-carbonitrile] | 19 nM
N#Cc1cnc2ccc(-c3c(-c4ccc(F)c(Cl)c4)ncn3CCCF)cn12 [101′, 6-(4-(3-chloro-4-fluorophenyl)-1-(3-fluoropropyl)-1H-imidazol-5-yl)imidazo[1,2-a]pyridine-3-carbonitrile] | 23.2 nM
N#Cc1cnc2ccc(-c3c(-c4cccc(C(N)=O)c4)ncn3CC(F)F)nn12 [255′, 3-(5-(3-cyanoimidazo[1,2-b]pyridazin-6-yl)-1-(2,2-difluoroethyl)-1H-imidazol-4-yl)benzamide] | 867 nM
CC(O)CCn1cnc(-c2ccc(F)cc2)c1-c1ccc2ncc(C(N)=O)n2c1 (centres unmarked) [156′, 6-(4-(4-fluorophenyl)-1-(3-hydroxybutyl)-1H-imidazol-5-yl)imidazo[1,2-a]pyridine-3-carboxamide] | 4.3 nM
Cn1cnc(-c2ccc(F)c(Cl)c2)c1-c1ccc2ncc(C#N)n2n1 [50′, 6-(4-(3-chloro-4-fluorophenyl)-1-methyl-1H-imidazol-5-yl)imidazo[1,2-b]pyridazine-3-carbonitrile] | 2.3 nM
CC(CO)n1cnc(-c2ccc(F)cc2)c1-c1ccc2ncc(C#N)n2c1 (centres unmarked) [81′, 6-(4-(4-fluorophenyl)-1-(1-hydroxypropan-2-yl)-1H-imidazol-5-yl)imidazo[1,2-a]pyridine-3-carbonitrile] | 88.5 nM
N#Cc1cnc2ccc(-c3c(-c4ccc(F)c(F)c4)ncn3CC(F)F)cn12 [226′, 6-(1-(2,2-difluoroethyl)-4-(3,4-difluorophenyl)-1H-imidazol-5-yl)imidazo[1,2-a]pyridine-3-carbonitrile] | 73.2 nM
Fc1ccc(-c2ncn(C3CC(F)(F)C3)c2-c2ccc3nccn3c2)cc1Cl [184′, 6-(4-(3-chloro-4-fluorophenyl)-1-(3,3-difluorocyclobutyl)-1H-imidazol-5-yl)imidazo[1,2-a]pyridine] | 54.5 nM
Fc1ccc(Cl)cc1-c1ncn(CC(F)F)c1-c1ccc2nccn2c1 [222′, 6-(4-(5-chloro-2-fluorophenyl)-1-(2,2-difluoroethyl)-1H-imidazol-5-yl)imidazo[1,2-a]pyridine] | 2.9 nM
CCOCCn1cnc(-c2ccc(F)cc2)c1-c1ccc2ncc(C(N)=O)n2c1 [178′, 6-(1-(2-ethoxyethyl)-4-(4-fluorophenyl)-1H-imidazol-5-yl)imidazo[1,2-a]pyridine-3-carboxamide] | 1.9 nM
CC(C)(O)CCn1cnc(-c2ccc(F)cc2)c1-c1ccc2ncc(C#N)n2n1 [12′, 6-(4-(4-fluorophenyl)-1-(3-hydroxy-3-methylbutyl)-1H-imidazol-5-yl)imidazo[1,2-b]pyridazine-3-carbonitrile] | 2.1 nM
CC(F)(F)Cn1cnc(-c2ccc(F)cc2)c1-c1ccc2ncc(C#N)n2n1 [22′, 6-(1-(2,2-difluoropropyl)-4-(4-fluorophenyl)-1H-imidazol-5-yl)imidazo[1,2-b]pyridazine-3-carbonitrile] | 1.2 nM
CCn1cnc(-c2ccc(F)cc2)c1-c1ccc2ncc(C#N)n2n1 [10′, 6-(1-ethyl-4-(4-fluorophenyl)-1H-imidazol-5-yl)imidazo[1,2-b]pyridazine-3-carbonitrile] | 2.5 nM
CCC(O)Cn1cnc(-c2ccc(F)cc2)c1-c1ccc2ncc(C#N)n2c1 (centres unmarked) [70′, 6-(4-(4-fluorophenyl)-1-(2-hydroxybutyl)-1H-imidazol-5-yl)imidazo[1,2-a]pyridine-3-carbonitrile] | 123 nM
Fc1ccc(-c2ncn([C@H]3CCC(F)(F)C3)c2-c2ccc3nccn3c2)cc1Cl [186′, (S)-6-(4-(3-chloro-4-fluorophenyl)-1-(3,3-difluorocyclopentyl)-1H-imidazol-5-yl)imidazo[1,2-a]pyridine] | 228 nM
N#Cc1cnc2ccc(-c3c(-c4ccc(F)c(Cl)c4)ncn3[C@@H]3CCC(F)(F)C3)nn12 [63′, (R)-6-(4-(3-chloro-4-fluorophenyl)-1-(3,3-difluorocyclopentyl)-1H-imidazol-5-yl)imidazo[1,2-b]pyridazine-3-carbonitrile] | 0.9 nM
N#Cc1cnc2ccc(-c3c(-c4ccc(F)c(Cl)c4)ncn3C3CC(F)(F)C3)nn12 [53′, 6-(4-(3-chloro-4-fluorophenyl)-1-(3,3-difluorocyclobutyl)-1H-imidazol-5-yl)imidazo[1,2-b]pyridazine-3-carbonitrile] | 2.1 nM
NC(=O)c1cnc2ccc(-c3c(-c4ccc(F)cc4)ncn3C[C@H](O)CO)cn12 [161′, (S)-6-(1-(2,3-dihydroxypropyl)-4-(4-fluorophenyl)-1H-imidazol-5-yl)imidazo[1,2-a]pyridine-3-carboxamide] | 6.7 nM
